According to paper PMC4697445 (Journal of medicinal chemistry, 2015):
pIC50: −log10 of the molar value. Like-named read-outs stand apart in the source and are kept apart here. One block for each compound: values may come before it.

What was measured:
PDE10A [1] = conditions: cited from earlier work
[2] = cited from earlier work
Biodistribution in rats = type: in vivo, male Sprague-Dawley rats; conditions: rat; for blood uptake / bone uptake / brain uptake / fat uptake / kidney uptake / liver uptake / muscle uptake: iv, mean ± SD, n = 4
PDE10A [3] = test system: PDE10A
PDE10A [4] = molecular target: PDE10A (Rattus norvegicus, UniProt Q9QYJ6); conditions: by 30 min p.i.
PDE10A (Rattus norvegicus, UniProt Q9QYJ6), sequence (Q9QYJ6 whole entry): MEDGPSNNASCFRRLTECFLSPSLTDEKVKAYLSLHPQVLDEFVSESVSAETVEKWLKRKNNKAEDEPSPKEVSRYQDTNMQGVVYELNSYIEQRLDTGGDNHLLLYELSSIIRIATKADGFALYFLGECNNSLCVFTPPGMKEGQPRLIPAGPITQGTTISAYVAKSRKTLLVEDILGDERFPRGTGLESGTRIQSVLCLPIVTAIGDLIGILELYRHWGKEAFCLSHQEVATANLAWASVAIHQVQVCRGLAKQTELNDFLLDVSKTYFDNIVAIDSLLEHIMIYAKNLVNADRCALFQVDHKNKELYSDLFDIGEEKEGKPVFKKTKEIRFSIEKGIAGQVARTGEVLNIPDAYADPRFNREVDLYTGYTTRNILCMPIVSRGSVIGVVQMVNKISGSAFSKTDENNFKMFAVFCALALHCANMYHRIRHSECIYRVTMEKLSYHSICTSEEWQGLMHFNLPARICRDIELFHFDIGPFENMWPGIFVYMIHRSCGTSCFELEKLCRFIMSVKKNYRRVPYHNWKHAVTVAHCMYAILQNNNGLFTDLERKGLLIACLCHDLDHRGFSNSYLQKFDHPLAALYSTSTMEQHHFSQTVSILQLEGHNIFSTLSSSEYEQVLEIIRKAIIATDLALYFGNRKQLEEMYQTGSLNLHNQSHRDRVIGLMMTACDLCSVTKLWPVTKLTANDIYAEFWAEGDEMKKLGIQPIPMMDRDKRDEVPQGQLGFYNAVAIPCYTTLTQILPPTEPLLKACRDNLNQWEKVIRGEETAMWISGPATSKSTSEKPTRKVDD

Compound: Cn1cc(-c2ccncc2)c(-c2ccc(OCc3ccc4ccccc4n3)cc2)n1 [[^11C]MP-10]
- brain uptake ([2]; 5 min p.i.): 0.162 ± 0.025 %ID/g
- brain uptake ([2]; 30 min p.i.): 0.066 ± 0.008 %ID/g

- blood uptake (Biodistribution in rats; 5 min p.i.): 0.343 ± 0.061 %ID/g
- bone uptake (Biodistribution in rats; 5 min p.i.): 0.182 ± 0.003 %ID/g
- brain uptake (Biodistribution in rats; 5 min p.i.): 0.092 ± 0.011 %ID/g
- fat uptake (Biodistribution in rats; 5 min p.i.): 0.119 ± 0.021 %ID/g
- kidney uptake (Biodistribution in rats; 5 min p.i.): 1.789 ± 0.332 %ID/g
- liver uptake (Biodistribution in rats; 5 min p.i.): 4.24 ± 0.74 %ID/g
- muscle uptake (Biodistribution in rats; 5 min p.i.): 0.166 ± 0.017 %ID/g
- blood uptake (Biodistribution in rats; 30 min p.i.): 0.306 ± 0.016 %ID/g
- bone uptake (Biodistribution in rats; 30 min p.i.): 0.144 ± 0.006 %ID/g
- brain uptake (Biodistribution in rats; 30 min p.i.): 0.129 ± 0.005 %ID/g
- fat uptake (Biodistribution in rats; 30 min p.i.): 0.202 ± 0.023 %ID/g
- kidney uptake (Biodistribution in rats; 30 min p.i.): 1.022 ± 0.103 %ID/g
- liver uptake (Biodistribution in rats; 30 min p.i.): 3.17 ± 0.55 %ID/g
- muscle uptake (Biodistribution in rats; 30 min p.i.): 0.156 ± 0.014 %ID/g
- blood uptake (Biodistribution in rats; 60 min p.i.): 0.287 ± 0.010 %ID/g
- bone uptake (Biodistribution in rats; 60 min p.i.): 0.224 ± 0.015 %ID/g
- brain uptake (Biodistribution in rats; 60 min p.i.): 0.149 ± 0.013 %ID/g
- fat uptake (Biodistribution in rats; 60 min p.i.): 0.124 ± 0.011 %ID/g
- kidney uptake (Biodistribution in rats; 60 min p.i.): 0.841 ± 0.087 %ID/g
- liver uptake (Biodistribution in rats; 60 min p.i.): 1.80 ± 0.62 %ID/g
- muscle uptake (Biodistribution in rats; 60 min p.i.): 0.134 ± 0.009 %ID/g
- % peak 1 (radiometabolite, retention time ~3.5 min) (NHP plasma, 2 min p.i.): 0%
- % peak 2 (radiometabolite, retention time ~7.5 min) (NHP plasma, 2 min p.i.): 0%
- % parent (NHP plasma, 15 min p.i.): > 90%
- % peak 1 (radiometabolite, retention time ~3.5 min) (NHP plasma, 15 min p.i.): 6%
- % peak 2 (radiometabolite, retention time ~7.5 min) (NHP plasma, 15 min p.i.): 2%
- % peak 1 (radiometabolite, retention time ~3.5 min) (NHP plasma, 30 min p.i.): 15%
- % peak 2 (radiometabolite, retention time ~7.5 min) (NHP plasma, 30 min p.i.): 8%
- % peak 1 (radiometabolite, retention time ~3.5 min) (NHP plasma, 60 min p.i.): 29%
- % peak 2 (radiometabolite, retention time ~7.5 min) (NHP plasma, 60 min p.i.): 14%
- % peak 1 (radiometabolite, retention time ~3.5 min) (NHP plasma, 90 min p.i.): 39%
- % peak 2 (radiometabolite, retention time ~7.5 min) (NHP plasma, 90 min p.i.): 14%
- radioactivity of arterial blood found in the plasma (plasma separated from packed red cells): 65–75%
- ratio of activity in the striatum versus nontarget brain regions (PDE10A [4]): > 2 fold
Compound: Cn1cc(-c2ccncc2)c(-c2ccc(OCc3nc4ccccc4cc3OCC[18F])cc2)n1 [[^18F]20a, 3-((2-Fluoro-^18F)ethoxy)-2-((4-(1-methyl-4-(pyridin-4-yl)-1H-pyrazol-3-yl)phenoxy)methyl)-quinoline]
- in vivo metabolic defluorination (bone activity) (Biodistribution in rats; 5 to 60 min p.i.): appeared more stable to in vivo defluorination
- ratios of uptake in the striatum vs nontarget brain regions (PDE10A [3]; cynomolgus macaque microPET, by 40 min p.i.): > 3 fold
- target:nontarget ratios (PDE10A [3]; cynomolgus macaque microPET, by 70 min p.i.): > 5 fold
- visualization of striatum in microPET (PDE10A [3]; cynomolgus macaque, summed images 0 to 180 min): clear visualization of the PDE10A-enriched striatum
